The results in this text go back to article PMC11730311 (Scientific Reports, 2025).

Broadly, the half-life is how long it takes for the measured level to halve.

Starred links: 1 amine or outer side, 2 acyl side, 3 side chain; linkers in the order of their positions; H or OH if unused. Residues, ends and D or L forms follow the SMILES beside them. Groups on a side chain read outwards from the residue. No end group written: not given here. *: point of attachment. C20 diacid = O=C(O)CCCCCCCCCCCCCCCCCCC(=O)*; γGlu = O=C(O)[C@H](CCC(=O)[*:2])N[*:1]

A short description of data set [1]: Pharmacokinetic pilot study, plasma exposure after IV dosing. Type of data set: in vivo, mouse. The conditions noted are these: for half-life: male, NMRI, mouse, plasma, iv, 700 nmol/kg.
Data set [2] concerns the target human calcitonin gene-related peptide receptor (hCGRP-R) (Homo sapiens, UniProt O60894+Q16602). Put plainly: cell-based.

human calcitonin gene-related peptide receptor (hCGRP-R), sequence (Q16602 23-461): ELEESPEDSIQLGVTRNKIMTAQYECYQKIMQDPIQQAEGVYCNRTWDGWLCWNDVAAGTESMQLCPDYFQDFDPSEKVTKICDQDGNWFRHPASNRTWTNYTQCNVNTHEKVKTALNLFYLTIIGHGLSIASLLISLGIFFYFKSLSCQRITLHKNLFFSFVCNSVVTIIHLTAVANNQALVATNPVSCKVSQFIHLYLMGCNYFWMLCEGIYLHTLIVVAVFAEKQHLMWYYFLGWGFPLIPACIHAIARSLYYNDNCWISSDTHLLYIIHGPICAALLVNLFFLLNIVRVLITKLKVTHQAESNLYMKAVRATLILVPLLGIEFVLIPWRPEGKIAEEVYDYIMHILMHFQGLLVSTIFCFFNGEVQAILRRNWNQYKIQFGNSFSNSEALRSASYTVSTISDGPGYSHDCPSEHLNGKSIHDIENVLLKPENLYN
human calcitonin gene-related peptide receptor (hCGRP-R), sequence (O60894 27-148): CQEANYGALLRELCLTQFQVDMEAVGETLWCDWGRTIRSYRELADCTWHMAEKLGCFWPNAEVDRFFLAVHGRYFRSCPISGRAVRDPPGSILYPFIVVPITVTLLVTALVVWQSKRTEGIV

`CC(C)C[C@H](NC(=O)[C@H](CCCNC(=N)N)NC(=O)[C@H](Cc1c[nH]cn1)NC(=O)[C@@H](NC(=O)[C@@H](N)C(C)C)[C@@H](C)O)C(=O)N[C@@H](C)C(=O)N[C@@H](CCCCNC(=O)CC[C@H](NC(=O)CCCCCCCCCCCCCCCCCCC(=O)O)C(=O)O)C(=O)N[C@@H](CC(C)C)C(=O)N[C@@H](CC(C)C)C(=O)N[C@@H](CO)C(=O)N[C@@H](CCCNC(=N)N)C(=O)N[C@@H](CO)C(=O)NCC(=O)NCC(=O)N[C@H](C(=O)N[C@H](C(=O)N[C@@H](CCCCN)C(=O)N[C@@H](CC(N)=O)C(=O)N[C@@H](CC(N)=O)C(=O)N[C@@H](Cc1ccccc1)C(=O)N[C@H](C(=O)N1CCC[C@H]1C(=O)N[C@H](C(=O)N[C@@H](CC(N)=O)C(=O)N[C@H](C(=O)NCC(=O)N[C@@H](CO)C(=O)N[C@@H](CCCCN)C(=O)N[C@@H](C)C(=O)N[C@@H](Cc1ccccc1)C(N)=O)C(C)C)[C@@H](C)O)C(C)C)C(C)C)C(C)C` [G14K-C20DA-γGlu] (H-VTHRLAK([γGlu-C20 diacid])LLSRSGGVVKNNFVPTNVGSKAF-NH2): the half-life in data set [1] is 606 min.
Consider `CC(C)C[C@H](NC(=O)CNC(=O)[C@H](C)NC(=O)[C@H](CC(C)C)NC(=O)[C@H](CCCNC(=N)N)NC(=O)[C@H](Cc1c[nH]cn1)NC(=O)[C@@H](NC(=O)[C@@H](N)C(C)C)[C@@H](C)O)C(=O)N[C@@H](CC(C)C)C(=O)N[C@@H](CO)C(=O)N[C@@H](CCCNC(=N)N)C(=O)N[C@@H](CO)C(=O)N[C@@H](CCCCNC(=O)CC[C@H](NC(=O)CCCCCCCCCCCCCCCCCCC(=O)O)C(=O)O)C(=O)NCC(=O)N[C@H](C(=O)N[C@H](C(=O)N[C@@H](CCCCN)C(=O)N[C@@H](CC(N)=O)C(=O)N[C@@H](CC(N)=O)C(=O)N[C@@H](Cc1ccccc1)C(=O)N[C@H](C(=O)N1CCC[C@H]1C(=O)N[C@H](C(=O)N[C@@H](CC(N)=O)C(=O)N[C@H](C(=O)NCC(=O)N[C@@H](CO)C(=O)N[C@@H](CCCCN)C(=O)N[C@@H](C)C(=O)N[C@@H](Cc1ccccc1)C(N)=O)C(C)C)[C@@H](C)O)C(C)C)C(C)C)C(C)C` [G20K-C20DA-γGlu] (H-VTHRLAGLLSRSK([γGlu-C20 diacid])GVVKNNFVPTNVGSKAF-NH2), for which the half-life in data set [1] was 450 min. The half-life values of the last two compounds are within 1.5-fold of each other.
On to `CC(C)C[C@H](NC(=O)CNC(=O)[C@H](C)NC(=O)[C@H](CC(C)C)NC(=O)[C@H](CCCNC(=N)N)NC(=O)[C@H](Cc1c[nH]cn1)NC(=O)[C@@H](NC(=O)[C@@H](N)C(C)C)[C@@H](C)O)C(=O)N[C@@H](CC(C)C)C(=O)N[C@@H](CCCCNC(=O)CC[C@H](NC(=O)CCCCCCCCCCCCCCCCCCC(=O)O)C(=O)O)C(=O)N[C@@H](CCCNC(=N)N)C(=O)N[C@@H](CO)C(=O)NCC(=O)NCC(=O)N[C@H](C(=O)N[C@H](C(=O)N[C@@H](CCCCN)C(=O)N[C@@H](CC(N)=O)C(=O)N[C@@H](CC(N)=O)C(=O)N[C@@H](Cc1ccccc1)C(=O)N[C@H](C(=O)N1CCC[C@H]1C(=O)N[C@H](C(=O)N[C@@H](CC(N)=O)C(=O)N[C@H](C(=O)NCC(=O)N[C@@H](CO)C(=O)N[C@@H](CCCCN)C(=O)N[C@@H](C)C(=O)N[C@@H](Cc1ccccc1)C(N)=O)C(C)C)[C@@H](C)O)C(C)C)C(C)C)C(C)C` [S17K-C20DA-γGlu] (H-VTHRLAGLLK([γGlu-C20 diacid])RSGGVVKNNFVPTNVGSKAF-NH2), for which the half-life in data set [1] was 738 min.
As for `CC(C)C[C@H](NC(=O)CNC(=O)[C@H](C)NC(=O)[C@H](CC(C)C)NC(=O)[C@H](CCCNC(=N)N)NC(=O)[C@H](Cc1c[nH]cn1)NC(=O)[C@@H](NC(=O)[C@@H](N)C(C)C)[C@@H](C)O)C(=O)N[C@@H](CC(C)C)C(=O)N[C@@H](CO)C(=O)N[C@@H](CCCNC(=N)N)C(=O)N[C@@H](CCCCNC(=O)CC[C@H](NC(=O)CCCCCCCCCCCCCCCCCCC(=O)O)C(=O)O)C(=O)NCC(=O)NCC(=O)N[C@H](C(=O)N[C@H](C(=O)N[C@@H](CCCCN)C(=O)N[C@@H](CC(N)=O)C(=O)N[C@@H](CC(N)=O)C(=O)N[C@@H](Cc1ccccc1)C(=O)N[C@H](C(=O)N1CCC[C@H]1C(=O)N[C@H](C(=O)N[C@@H](CC(N)=O)C(=O)N[C@H](C(=O)NCC(=O)N[C@@H](CO)C(=O)N[C@@H](CCCCN)C(=O)N[C@@H](C)C(=O)N[C@@H](Cc1ccccc1)C(N)=O)C(C)C)[C@@H](C)O)C(C)C)C(C)C)C(C)C` [S19K-C20DA-γGlu] (H-VTHRLAGLLSRK([γGlu-C20 diacid])GGVVKNNFVPTNVGSKAF-NH2), in data set [1] (male NMRI mice, IV), the “difference in half-life versus hαCGRP8-37N25K-C20DA-γGlu” value is on record as ~ 6 h. Besides, in data set [1], the half-life is 822 min.
`CC(C)C[C@H](NC(=O)CNC(=O)[C@H](C)NC(=O)[C@H](CC(C)C)NC(=O)[C@H](CCCNC(=N)N)NC(=O)[C@H](Cc1c[nH]cn1)NC(=O)[C@@H](NC(=O)[C@@H](N)C(C)C)[C@@H](C)O)C(=O)N[C@@H](CC(C)C)C(=O)N[C@@H](CO)C(=O)N[C@@H](CCCNC(=N)N)C(=O)N[C@@H](CO)C(=O)NCC(=O)NCC(=O)N[C@H](C(=O)N[C@H](C(=O)N[C@@H](CCCCN)C(=O)N[C@@H](CCCCNC(=O)CC[C@H](NC(=O)CCCCCCCCCCCCCCCCCCC(=O)O)C(=O)O)C(=O)N[C@@H](CC(N)=O)C(=O)N[C@@H](Cc1ccccc1)C(=O)N[C@H](C(=O)N1CCC[C@H]1C(=O)N[C@H](C(=O)N[C@@H](CC(N)=O)C(=O)N[C@H](C(=O)NCC(=O)N[C@@H](CO)C(=O)N[C@@H](CCCCN)C(=O)N[C@@H](CO)C(=O)N[C@@H](Cc1ccccc1)C(N)=O)C(C)C)[C@@H](C)O)C(C)C)C(C)C)C(C)C` [hαCGRP8-37A36S, N25K-C20DA-γGlu] (H-VTHRLAGLLSRSGGVVKK([γGlu-C20 diacid])NFVPTNVGSKSF-NH2): in data set [2], the Kb is 6.76 nM.
Take `CC(C)C[C@H](NC(=O)CNC(=O)[C@H](C)NC(=O)[C@H](CC(C)C)NC(=O)[C@H](CCCNC(=N)N)NC(=O)[C@H](Cc1c[nH]cn1)NC(=O)[C@@H](NC(=O)[C@@H](N)C(C)C)[C@@H](C)O)C(=O)N[C@@H](CC(C)C)C(=O)N[C@@H](CO)C(=O)N[C@@H](CCCNC(=N)N)C(=O)N[C@@H](CO)C(=O)NCC(=O)NCC(=O)N[C@H](C(=O)N[C@H](C(=O)N[C@@H](CCCCN)C(=O)N[C@@H](CCCCNC(=O)CC[C@H](NC(=O)CCCCCCCCCCCCCCCCCCC(=O)O)C(=O)O)C(=O)N[C@@H](CC(N)=O)C(=O)N[C@@H](Cc1ccccc1)C(=O)N[C@H](C(=O)N1CCC[C@H]1C(=O)N[C@H](C(=O)N[C@@H](CC(N)=O)C(=O)N[C@H](C(=O)NCC(=O)N[C@@H](CO)C(=O)N[C@@H](CCCCN)C(=O)N[C@@H](C)C(=O)N[C@@H](Cc1ccccc1)C(N)=O)C(C)C)[C@@H](C)O)C(C)C)C(C)C)C(C)C` [hαCGRP8-37N25K-C20DA-γGlu]: in data set [2], the Kb is 4.68 nM. The compound further gave a half-life in data set [1] of 438 min.
With “VTHRLAGLLSRSGGVVKNNFVPTNVGSKSF-NH2 [hαCGRP8-37A36S]”, the Kb in data set [2] was 1.66 nM.
